According to ChEMBL document CHEMBL3991601, “The target landscape of clinical kinase drugs” (Science, 2017):
Activity calls are given as the source filed them. Unless noted, the calls are words filed in the database; no cut-off is given here.

Experiments:
[1] = target: 5'-AMP-activated protein kinase subunit gamma-1 (Homo sapiens, UniProt P54619)
[2] = target: 5'-AMP-activated protein kinase subunit gamma-2 (Homo sapiens, UniProt Q9UGJ0)
[3] = target: T1, General transcription and DNA repair factor IIH helicase subunit XPD (Homo sapiens, UniProt P18074)
T1 sequence (P18074 whole entry): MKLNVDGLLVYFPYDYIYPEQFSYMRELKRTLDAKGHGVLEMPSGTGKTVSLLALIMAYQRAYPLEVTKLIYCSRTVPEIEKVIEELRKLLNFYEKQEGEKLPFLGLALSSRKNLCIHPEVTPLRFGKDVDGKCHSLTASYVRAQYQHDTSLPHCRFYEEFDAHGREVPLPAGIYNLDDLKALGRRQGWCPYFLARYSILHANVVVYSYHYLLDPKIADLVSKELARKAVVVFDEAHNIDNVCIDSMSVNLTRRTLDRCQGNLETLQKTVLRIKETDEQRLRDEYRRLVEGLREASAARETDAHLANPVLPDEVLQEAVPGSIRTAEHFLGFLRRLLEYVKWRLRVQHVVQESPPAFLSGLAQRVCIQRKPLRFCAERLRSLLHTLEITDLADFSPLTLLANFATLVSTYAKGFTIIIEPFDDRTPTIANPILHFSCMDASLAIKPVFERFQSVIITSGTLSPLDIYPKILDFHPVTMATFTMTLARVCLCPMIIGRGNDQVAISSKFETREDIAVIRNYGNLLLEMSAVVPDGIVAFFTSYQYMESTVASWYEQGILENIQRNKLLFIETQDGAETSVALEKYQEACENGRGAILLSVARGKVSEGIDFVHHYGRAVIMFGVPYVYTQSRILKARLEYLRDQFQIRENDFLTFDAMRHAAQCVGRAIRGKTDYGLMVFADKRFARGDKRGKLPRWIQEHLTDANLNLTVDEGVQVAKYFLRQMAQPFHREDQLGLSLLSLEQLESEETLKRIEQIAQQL

[4] = target: T2, Uncharacterized protein FLJ45252 (Homo sapiens, UniProt Q6ZSR9)
T2 sequence (Q6ZSR9 whole entry): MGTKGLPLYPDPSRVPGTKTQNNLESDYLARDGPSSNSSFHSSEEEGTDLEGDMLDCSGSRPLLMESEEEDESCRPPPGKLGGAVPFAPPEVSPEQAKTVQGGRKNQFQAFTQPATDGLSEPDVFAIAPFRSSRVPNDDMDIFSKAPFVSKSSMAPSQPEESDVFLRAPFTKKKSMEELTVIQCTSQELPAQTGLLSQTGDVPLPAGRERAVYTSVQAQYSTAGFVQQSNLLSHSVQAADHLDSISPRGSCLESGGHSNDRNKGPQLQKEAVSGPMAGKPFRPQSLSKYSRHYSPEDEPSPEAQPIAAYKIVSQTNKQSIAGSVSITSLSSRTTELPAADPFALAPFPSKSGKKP

[5] = target: Cyclin-dependent kinase 18 (Homo sapiens, UniProt Q07002)
[6] = target: Mast/stem cell growth factor receptor Kit (Homo sapiens, UniProt P10721)
[7] = target: Cyclin-dependent kinase 9 (Homo sapiens, UniProt P50750)
[8] = target: Activin receptor type-1-like (Homo sapiens, UniProt P37023)
[9] = target: Ras-related C3 botulinum toxin substrate 1 (Homo sapiens, UniProt P63000)
[10] = target: Actin-related protein 3 (Homo sapiens, UniProt P61158)

Chain of 5'-AMP-activated protein kinase subunit gamma-1 (P54619 whole entry): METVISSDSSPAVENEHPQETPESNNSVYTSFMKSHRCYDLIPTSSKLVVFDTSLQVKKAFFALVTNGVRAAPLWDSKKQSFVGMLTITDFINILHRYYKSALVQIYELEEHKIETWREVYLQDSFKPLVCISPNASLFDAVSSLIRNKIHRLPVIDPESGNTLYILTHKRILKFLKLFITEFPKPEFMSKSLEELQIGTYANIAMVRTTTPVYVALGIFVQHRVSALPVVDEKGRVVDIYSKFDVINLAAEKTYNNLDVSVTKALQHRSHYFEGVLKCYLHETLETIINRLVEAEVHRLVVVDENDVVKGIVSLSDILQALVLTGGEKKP
Chain of Activin receptor type-1-like (P37023 whole entry): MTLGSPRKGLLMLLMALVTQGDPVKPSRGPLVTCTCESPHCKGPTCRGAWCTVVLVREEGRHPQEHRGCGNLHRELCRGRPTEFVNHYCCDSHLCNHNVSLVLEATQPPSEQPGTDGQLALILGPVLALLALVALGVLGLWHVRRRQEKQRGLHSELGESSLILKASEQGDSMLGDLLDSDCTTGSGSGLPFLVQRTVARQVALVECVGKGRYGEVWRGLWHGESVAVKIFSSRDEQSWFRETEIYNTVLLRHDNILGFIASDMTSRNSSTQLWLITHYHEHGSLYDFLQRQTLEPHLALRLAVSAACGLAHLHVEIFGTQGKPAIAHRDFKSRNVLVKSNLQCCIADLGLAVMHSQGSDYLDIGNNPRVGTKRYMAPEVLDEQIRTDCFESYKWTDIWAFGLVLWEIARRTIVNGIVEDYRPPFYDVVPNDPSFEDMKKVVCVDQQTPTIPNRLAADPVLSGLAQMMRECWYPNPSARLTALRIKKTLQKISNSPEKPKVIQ
Chain of 5'-AMP-activated protein kinase subunit gamma-2 (Q9UGJ0 whole entry): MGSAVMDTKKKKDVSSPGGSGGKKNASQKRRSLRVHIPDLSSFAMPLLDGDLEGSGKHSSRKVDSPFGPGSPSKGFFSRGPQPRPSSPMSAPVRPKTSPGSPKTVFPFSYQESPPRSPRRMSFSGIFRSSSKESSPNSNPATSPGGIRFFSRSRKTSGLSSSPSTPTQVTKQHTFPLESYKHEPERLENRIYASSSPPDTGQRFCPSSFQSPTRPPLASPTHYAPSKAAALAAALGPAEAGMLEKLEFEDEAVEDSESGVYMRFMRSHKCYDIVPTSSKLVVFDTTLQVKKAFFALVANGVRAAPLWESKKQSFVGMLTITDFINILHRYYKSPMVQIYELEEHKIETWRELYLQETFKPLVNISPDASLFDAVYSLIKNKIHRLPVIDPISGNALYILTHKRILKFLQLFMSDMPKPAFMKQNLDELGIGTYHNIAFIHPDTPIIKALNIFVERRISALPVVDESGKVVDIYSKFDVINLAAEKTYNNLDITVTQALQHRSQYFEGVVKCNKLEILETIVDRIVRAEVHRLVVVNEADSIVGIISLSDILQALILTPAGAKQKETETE
Chain of Cyclin-dependent kinase 18 (Q07002 whole entry): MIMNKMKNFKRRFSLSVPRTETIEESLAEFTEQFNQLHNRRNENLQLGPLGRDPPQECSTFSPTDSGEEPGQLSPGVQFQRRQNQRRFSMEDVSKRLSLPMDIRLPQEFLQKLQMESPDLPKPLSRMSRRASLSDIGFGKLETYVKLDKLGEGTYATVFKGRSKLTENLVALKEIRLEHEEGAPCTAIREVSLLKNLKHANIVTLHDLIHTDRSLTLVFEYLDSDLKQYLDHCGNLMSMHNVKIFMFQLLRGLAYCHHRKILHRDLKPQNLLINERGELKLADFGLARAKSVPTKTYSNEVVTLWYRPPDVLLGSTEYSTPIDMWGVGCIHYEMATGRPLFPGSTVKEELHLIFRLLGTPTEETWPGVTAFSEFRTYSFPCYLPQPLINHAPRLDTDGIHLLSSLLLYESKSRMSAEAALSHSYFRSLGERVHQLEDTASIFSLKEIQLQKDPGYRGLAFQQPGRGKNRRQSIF
Chain of Mast/stem cell growth factor receptor Kit (P10721 whole entry): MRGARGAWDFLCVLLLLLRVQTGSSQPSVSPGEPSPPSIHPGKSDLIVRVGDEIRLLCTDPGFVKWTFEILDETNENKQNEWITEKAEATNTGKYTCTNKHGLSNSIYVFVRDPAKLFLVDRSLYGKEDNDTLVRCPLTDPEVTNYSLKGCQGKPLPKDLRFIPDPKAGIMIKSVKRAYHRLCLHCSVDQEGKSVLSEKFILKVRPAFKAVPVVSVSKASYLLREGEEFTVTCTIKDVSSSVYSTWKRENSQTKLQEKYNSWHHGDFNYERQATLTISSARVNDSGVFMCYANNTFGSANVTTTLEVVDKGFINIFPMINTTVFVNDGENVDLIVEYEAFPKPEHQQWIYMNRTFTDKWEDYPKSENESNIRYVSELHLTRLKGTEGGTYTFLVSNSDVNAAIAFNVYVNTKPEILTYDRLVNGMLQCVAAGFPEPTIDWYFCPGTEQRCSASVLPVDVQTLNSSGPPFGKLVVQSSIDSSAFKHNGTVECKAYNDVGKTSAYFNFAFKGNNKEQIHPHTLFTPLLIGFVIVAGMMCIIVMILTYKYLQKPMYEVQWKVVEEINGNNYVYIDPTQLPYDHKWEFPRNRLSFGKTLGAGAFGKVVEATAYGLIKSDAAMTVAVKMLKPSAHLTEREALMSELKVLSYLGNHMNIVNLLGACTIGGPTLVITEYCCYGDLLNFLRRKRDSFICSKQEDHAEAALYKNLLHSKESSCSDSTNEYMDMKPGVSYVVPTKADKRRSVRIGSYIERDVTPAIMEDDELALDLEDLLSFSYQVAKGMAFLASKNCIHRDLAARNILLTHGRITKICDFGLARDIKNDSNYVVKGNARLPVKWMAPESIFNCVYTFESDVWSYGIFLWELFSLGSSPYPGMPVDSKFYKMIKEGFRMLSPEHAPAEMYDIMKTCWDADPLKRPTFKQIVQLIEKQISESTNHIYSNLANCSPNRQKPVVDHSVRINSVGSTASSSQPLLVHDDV
Chain of Cyclin-dependent kinase 9 (P50750 whole entry): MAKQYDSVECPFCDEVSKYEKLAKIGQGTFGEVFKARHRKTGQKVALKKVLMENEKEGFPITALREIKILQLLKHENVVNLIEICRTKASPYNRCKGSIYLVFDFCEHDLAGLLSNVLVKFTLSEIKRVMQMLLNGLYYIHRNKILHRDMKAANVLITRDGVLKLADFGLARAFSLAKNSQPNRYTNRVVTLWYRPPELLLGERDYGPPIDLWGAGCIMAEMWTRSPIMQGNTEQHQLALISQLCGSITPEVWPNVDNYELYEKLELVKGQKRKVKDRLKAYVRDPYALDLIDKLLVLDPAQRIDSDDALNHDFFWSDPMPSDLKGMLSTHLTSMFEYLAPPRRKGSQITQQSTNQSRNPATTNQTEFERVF

SMILES: CCc1cnn2c(NCc3ccc[n+]([O-])c3)cc(N3CCCC[C@H]3CCO)nc12 [DINACICLIB]
- Kd [1]: > 30 µM (inactive)
- Kd [2]: > 30 µM (inactive)
- Kd [3]: 0.56 µM (active)
- Kd [4]: > 30 µM (inactive)

SMILES: CC[C@H](Nc1ncnc2[nH]cnc12)c1nc2cccc(F)c2c(=O)n1-c1ccccc1 [IDELALISIB]
- Kd [1]: > 30 µM (inactive)
- Kd [2]: > 30 µM (inactive)
- Kd [3]: > 30 µM (inactive)
- Kd [4]: > 30 µM (inactive)

SMILES: O=C(O)[C@]1(Cc2cccc(Nc3nccs3)n2)CC[C@@H](Oc2cccc(Cl)c2F)CC1 [MK-5108]
- Kd [5]: > 30 µM (inactive)

SMILES: O=C1NC(=O)/C(=C/c2ccc3nccc(-c4ccncc4)c3c2)S1 [GSK-1059615]
- Kd [6]: > 30 µM (inactive)

SMILES: CO[C@H]1C[C@@H]2CC[C@@H](C)[C@@](O)(O2)C(=O)C(=O)N2CCCC[C@H]2C(=O)O[C@H]([C@H](C)C[C@@H]2CC[C@@H](OCCO)[C@H](OC)C2)CC(=O)[C@H](C)/C=C(\C)[C@@H](O)[C@@H](OC)C(=O)[C@H](C)C[C@H](C)/C=C/C=C/C=C/1C [EVEROLIMUS]
- Kd [7]: > 30 µM (inactive)

SMILES: CC(=O)Nc1cccc(-n2c(=O)n(C3CC3)c(=O)c3c(Nc4ccc(I)cc4F)n(C)c(=O)c(C)c32)c1 [TRAMETINIB]
- Kd [8]: > 30 µM (inactive)
- Kd [5]: > 30 µM (inactive)

SMILES: Cc1cc(Nc2cc(N3CCN(C)CC3)nc(/C=C/c3ccccc3)n2)n[nH]1 [ENMD-2076]
- Kd [8]: > 30 µM (inactive)

SMILES: COc1cc(CCc2cc(NC(=O)c3ccc(N4C[C@@H](C)N[C@@H](C)C4)cc3)n[nH]2)cc(OC)c1 [AZD-4547]
- Kd [8]: > 30 µM (inactive)

SMILES: CNC(=O)c1cc(Oc2ccc(NC(=O)Nc3ccc(Cl)c(C(F)(F)F)c3)c(F)c2)ccn1 [REGORAFENIB]
- Kd [1]: > 30 µM (inactive)
- Kd [2]: > 30 µM (inactive)
- Kd [3]: > 30 µM (inactive)
- Kd [4]: > 30 µM (inactive)

SMILES: CCN1CCN(Cc2ccc(-c3cc4c(N[C@H](C)c5ccccc5)ncnc4[nH]3)cc2)CC1 [AEE-788]
- Kd [6]: > 30 µM (inactive)

SMILES: CN1CC[C@@H](c2c(O)cc(O)c3c(=O)cc(-c4ccccc4Cl)oc23)[C@@H]1CO
- Kd [9]: > 30 µM (inactive)

SMILES: CNC(=O)c1ccc(-c2cnc3ncc(Cc4ccc5ncccc5c4)n3n2)cc1F [CAPMATINIB]
- Kd [8]: > 30 µM (inactive)

SMILES: Cc1cn(-c2cc(NC(=O)c3ccc(C)c(Nc4nccc(-c5cccnc5)n4)c3)cc(C(F)(F)F)c2)cn1 [NILOTINIB]
- Kd [9]: > 30 µM (inactive)

SMILES: CC[C@@H]1C(=O)N(C)c2cnc(Nc3ccc(C(=O)N[C@H]4CC[C@H](N5CCN(CC6CC6)CC5)CC4)cc3OC)nc2N1C(C)C [VOLASERTIB]
- Kd [1]: > 30 µM (inactive)
- Kd [2]: > 30 µM (inactive)
- Kd [3]: > 30 µM (inactive)
- Kd [4]: > 30 µM (inactive)

SMILES: CN1CCC(COc2cnc(-c3cccc(Cn4nc(-c5cccc(C#N)c5)ccc4=O)c3)nc2)CC1 [TEPOTINIB]
- Kd [10]: > 30 µM (inactive)

SMILES: CCS(=O)(=O)N1CC(CC#N)(n2cc(-c3ncnc4[nH]ccc34)cn2)C1 [BARICITINIB]
- Kd [8]: > 30 µM (inactive)

SMILES: Cc1cc(-c2cc(O)ccc2Cl)cc2nnc(Nc3ccc(OCCN4CCCC4)cc3)nc12
- Kd [9]: > 30 µM (inactive)

SMILES: O=C(c1ccc(F)c(F)c1Nc1ccc(I)cc1F)N1CC(O)([C@@H]2CCCCN2)C1 [COBIMETINIB]
- Kd [9]: > 30 µM (inactive)

SMILES: C=CC(=O)N1CCC(Oc2cc3c(Nc4ccc(Cl)c(Cl)c4F)ncnc3cc2OC)CC1 [POZIOTINIB]
- Kd [9]: > 30 µM (inactive)
